Activity calls are given as the source filed them. The rule behind the calls is not given here.
Legend:
[1] = target: T1, Vascular endothelial growth factor receptor 3 (Homo sapiens, UniProt P35916); assay: Inhibition of human FLT4/VEGFR3
MDA-MB-436 [2] = assay: Antimigratory activity against human MDA-MB-436 cells assessed as reduction in cell migration incubated for 12 hrs by transwell assay; assay type: functional, cell-based
MDA-MB-436 [3] = assay: Upregulation of E-cadherin protein expression in human MDA-MB-436 cells up to 10 uM incubated for 24 hrs by Western blot analysis; assay type: functional, cell-based; settings: dose microM <=10, time 24.0 hrs
MDA-MB-231 [4] = assay: Induction of apoptosis in human MDA-MB-231 cells assessed as downregulation of Bcl2 expression up to 10 uM incubated for 24 hrs by Western blotting analysis; assay type: functional, cell-based; settings: dose microM <=10, time 24.0 hrs
[5] = target: Vascular endothelial growth factor receptor 2 (Homo sapiens, UniProt P35968); assay: Inhibition of human KDR/VEGFR2
Vascular endothelial growth factor receptor 2, sequence (P35968 whole entry): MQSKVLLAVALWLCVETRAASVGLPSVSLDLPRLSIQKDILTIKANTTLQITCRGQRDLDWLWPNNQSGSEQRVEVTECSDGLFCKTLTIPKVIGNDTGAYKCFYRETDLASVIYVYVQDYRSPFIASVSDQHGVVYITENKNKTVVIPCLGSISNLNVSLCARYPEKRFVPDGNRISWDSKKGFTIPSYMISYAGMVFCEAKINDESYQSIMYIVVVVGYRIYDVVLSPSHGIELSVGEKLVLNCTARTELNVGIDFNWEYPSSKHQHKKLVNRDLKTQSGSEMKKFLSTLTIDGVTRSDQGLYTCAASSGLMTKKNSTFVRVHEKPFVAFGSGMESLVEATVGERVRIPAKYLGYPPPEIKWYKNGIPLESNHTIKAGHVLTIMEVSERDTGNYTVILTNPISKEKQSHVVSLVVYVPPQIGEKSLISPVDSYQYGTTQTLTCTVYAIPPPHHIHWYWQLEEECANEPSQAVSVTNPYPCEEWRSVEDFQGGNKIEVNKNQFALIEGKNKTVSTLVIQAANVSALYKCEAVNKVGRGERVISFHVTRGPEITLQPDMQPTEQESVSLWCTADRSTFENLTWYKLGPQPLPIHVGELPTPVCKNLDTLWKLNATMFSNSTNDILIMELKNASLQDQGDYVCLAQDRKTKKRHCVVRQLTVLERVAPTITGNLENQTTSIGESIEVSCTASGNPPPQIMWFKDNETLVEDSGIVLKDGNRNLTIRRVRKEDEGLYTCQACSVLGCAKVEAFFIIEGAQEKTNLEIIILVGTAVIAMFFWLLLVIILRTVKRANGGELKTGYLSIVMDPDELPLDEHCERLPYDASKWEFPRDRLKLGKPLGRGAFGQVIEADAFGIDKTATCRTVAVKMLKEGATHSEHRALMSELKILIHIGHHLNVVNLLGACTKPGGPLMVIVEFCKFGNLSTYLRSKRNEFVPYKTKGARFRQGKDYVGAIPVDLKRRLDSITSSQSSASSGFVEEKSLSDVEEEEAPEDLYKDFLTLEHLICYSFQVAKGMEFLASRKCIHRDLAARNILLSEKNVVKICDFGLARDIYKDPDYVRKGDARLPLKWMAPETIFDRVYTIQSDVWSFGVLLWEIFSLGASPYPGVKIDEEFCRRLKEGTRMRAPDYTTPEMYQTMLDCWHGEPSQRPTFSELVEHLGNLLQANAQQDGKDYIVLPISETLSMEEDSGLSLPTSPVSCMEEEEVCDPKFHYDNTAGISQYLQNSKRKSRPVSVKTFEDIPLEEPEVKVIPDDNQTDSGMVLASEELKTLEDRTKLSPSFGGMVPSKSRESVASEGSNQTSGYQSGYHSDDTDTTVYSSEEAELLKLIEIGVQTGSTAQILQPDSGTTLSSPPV

Mus musculus [6] = assay: In vivo inhibition of VEGFR2 phosphorylation in BALB/c mouse xenografted with MDA-MB-231 cells at 25 mg/kg, po by immunohistochemistry analysis; assay type: functional, organism-based
[7] = Antitumor activity against human MDA-MB-231 cells xenografted in BALB/c mouse assessed as tumor growth inhibition at 50 mg/kg, po relative to control; assay type: functional; settings: read-out: TGI
Mus musculus [8] = assay: Upregulation of E-cadherin protein expression human MDA-MB-231 cells injected into vein of BALB/c mouse lung metastatic model at 50 mg/kg, po once a day measured on day 21 by […]; assay type: functional, organism-based
[9] = target: T1, Vascular endothelial growth factor receptor 3; assay: Inhibition of VEGFR3 in human MDA-MB-436 cells assessed as inhibition of AKT phosphorylation at 2.5 uM incubated for 24 hrs by Western blot analysis; assay type: cell-based
[10] = Clearance in Sprague-Dawley rat at 1 mg/kg, iv by LC-MS analysis; assay type: ADME, organism-based; settings: in vivo
MDA-MB-231 [11] = assay: Induction of apoptosis in human MDA-MB-231 cells assessed as cleaved caspase 3 up to 10 uM incubated for 24 hrs by Western blotting analysis; assay type: functional, cell-based; settings: dose microM <=10, time 24.0 hrs
MDA-MB-436 [12] = assay: Induction of apoptosis in human MDA-MB-436 cells assessed as apoptotic cells at 5 uM incubated for 48 hrs by flow cytometry; assay type: functional
MDA-MB-231 [13] = assay: Induction of apoptosis in human MDA-MB-231 cells assessed as increase in apoptotic cells incubated for 24 hrs by Hoechst 33258 staining under a fluorescence microscopy; assay type: functional, cell-based
[14] = AUC (0 to infinity) in Sprague-Dawley rat at 1 mg/kg, iv by LC-MS analysis; assay type: ADME, organism-based; set-up: time infinity, route intravenous, dose 1 mg/kg; settings: in vivo
MDA-MB-231 [15] = assay: Induction of apoptosis in human MDA-MB-231 cells assessed as apoptotic cells at 2.5 to 5 uM incubated for 48 hrs by flow cytometry (reference value: 7.2%); assay type: functional; settings: dose 2.5-5 µM
MDA-MB-231 [16] = assay: Antimetastatic activity against human MDA-MB-231 cells injected into vein of BALB/c mouse lung metastatic model assessed as less lung metastatic nodules at 50 mg/kg, po once a day measured on day 21; assay type: functional, organism-based; settings: time 21.0 day
[17] = AUC (0 to infinity) in Sprague-Dawley rat at 10 mg/kg, po by LC-MS analysis; assay type: ADME, organism-based; set-up: route oral, time infinity, dose 10 mg/kg; settings: in vivo
[18] = target: T1, Vascular endothelial growth factor receptor 3; assay: Inhibition of VEGFR3 in human MDA-MB-436 cells assessed as inhibition of STAT5 phosphorylation at 2.5 uM incubated for 24 hrs by Western blot analysis; assay type: cell-based
[19] = Half life in Sprague-Dawley rat at 1 mg/kg, iv by LC-MS analysis; assay type: ADME, organism-based; settings: in vivo
[20] = target: Tyrosine-protein kinase BTK (Homo sapiens, UniProt Q06187); assay: Inhibition of human BTK
Tyrosine-protein kinase BTK, sequence (Q06187 whole entry): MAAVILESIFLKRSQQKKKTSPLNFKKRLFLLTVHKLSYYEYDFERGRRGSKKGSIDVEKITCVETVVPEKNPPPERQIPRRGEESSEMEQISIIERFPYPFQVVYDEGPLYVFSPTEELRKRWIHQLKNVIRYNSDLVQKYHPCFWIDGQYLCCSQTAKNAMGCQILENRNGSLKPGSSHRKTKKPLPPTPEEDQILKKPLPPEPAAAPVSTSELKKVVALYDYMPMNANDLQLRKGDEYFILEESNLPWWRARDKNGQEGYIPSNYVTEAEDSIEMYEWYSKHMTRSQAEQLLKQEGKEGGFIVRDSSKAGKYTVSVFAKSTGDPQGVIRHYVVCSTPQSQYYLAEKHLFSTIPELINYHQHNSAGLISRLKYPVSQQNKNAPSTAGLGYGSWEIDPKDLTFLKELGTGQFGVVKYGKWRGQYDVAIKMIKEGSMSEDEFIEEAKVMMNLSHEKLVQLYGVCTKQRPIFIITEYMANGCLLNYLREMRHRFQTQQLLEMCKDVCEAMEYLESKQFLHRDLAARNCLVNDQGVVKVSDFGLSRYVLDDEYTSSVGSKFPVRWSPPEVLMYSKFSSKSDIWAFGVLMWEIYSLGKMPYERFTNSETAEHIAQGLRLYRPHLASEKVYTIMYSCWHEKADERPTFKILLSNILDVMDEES

[21] = Toxicity in BALB/c mouse xenografted with MDA-MB-231 cells assessed as AST level in blood at 300 mg/kg, po; assay type: organism-based; settings: in vivo
MDA-MB-231 [22] = assay: Antimigratory activity against human MDA-MB-231 cells assessed as suppression of migration measured after 24 hrs by Wound healing assay; assay type: functional, cell-based
HDLEC = assay: Anti-lymphangiogenic activity against human dermal lymphatic endothelial cells assessed as inhibition of VEGF-C-mediated tube formation at 100 nM incubated for 12 hrs by inverted microscopy; assay type: functional, tissue-based
[23] = target: T1, Vascular endothelial growth factor receptor 3; assay: Inhibition of VEGFR3 in human dermal lymphatic endothelial cells assessed as inhibition of STAT5 phosphorylation incubated for 24 hrs by Western blot analysis; settings: HDLEC
MDA-MB-436 [24] = assay: Anticancer activity against human MDA-MB-436 cells assessed as cell viability incubated for 48 hrs by MTT assay; settings: MDA-MB-436, 48 h
MDA-MB-436 [25] = assay: Induction of apoptosis in human MDA-MB-436 cells assessed as upregulation of Bax expression up to 10 uM incubated for 24 hrs by Western blotting analysis; assay type: functional, cell-based; settings: dose microM <=10, time 24.0 hrs
[26] = Toxicity in BALB/c mouse xenografted with MDA-MB-231 cells assessed as ALT level in blood at 300 mg/kg, po; assay type: organism-based; settings: in vivo
[27] = Toxicity in BALB/c mouse xenografted with MDA-MB-231 cells assessed as LDH level in blood at 300 mg/kg, po; assay type: organism-based; settings: in vivo
MDA-MB-436 [28] = assay: Induction of apoptosis in human MDA-MB-436 cells assessed as apoptotic cells at 2.5 uM incubated for 48 hrs by flow cytometry; assay type: functional
[29] = target: T1, Vascular endothelial growth factor receptor 3; assay: Inhibition of VEGFR3 phosphorylation in human MDA-MB-231 cells at 2.5 uM incubated for 24 hrs by Western blot analysis; assay type: cell-based
[30] = Toxicity in BALB/c mouse xenografted with MDA-MB-231 cells assessed as change in lung at 300 mg/kg, po by hematoxylin and eosin staining based analysis; assay type: organism-based; settings: in vivo
[31] = Toxicity in BALB/c mouse xenografted with MDA-MB-231 cells assessed as uric acid level in blood at 300 mg/kg, po; assay type: organism-based; settings: in vivo
[32] = target: Vascular endothelial growth factor receptor 3 (Mus musculus) (UniProt P35917); assay: In vivo inhibition of VEGFR3 phosphorylation in BALB/c mouse xenografted with MDA-MB-231 cells assessed as decrease in ERK1/2 phosphorylation at 25 mg/kg, po by immunohistochemistry analysis; assay type: functional, organism-based
Vascular endothelial growth factor receptor 3 (Mus musculus), sequence (P35917 whole entry): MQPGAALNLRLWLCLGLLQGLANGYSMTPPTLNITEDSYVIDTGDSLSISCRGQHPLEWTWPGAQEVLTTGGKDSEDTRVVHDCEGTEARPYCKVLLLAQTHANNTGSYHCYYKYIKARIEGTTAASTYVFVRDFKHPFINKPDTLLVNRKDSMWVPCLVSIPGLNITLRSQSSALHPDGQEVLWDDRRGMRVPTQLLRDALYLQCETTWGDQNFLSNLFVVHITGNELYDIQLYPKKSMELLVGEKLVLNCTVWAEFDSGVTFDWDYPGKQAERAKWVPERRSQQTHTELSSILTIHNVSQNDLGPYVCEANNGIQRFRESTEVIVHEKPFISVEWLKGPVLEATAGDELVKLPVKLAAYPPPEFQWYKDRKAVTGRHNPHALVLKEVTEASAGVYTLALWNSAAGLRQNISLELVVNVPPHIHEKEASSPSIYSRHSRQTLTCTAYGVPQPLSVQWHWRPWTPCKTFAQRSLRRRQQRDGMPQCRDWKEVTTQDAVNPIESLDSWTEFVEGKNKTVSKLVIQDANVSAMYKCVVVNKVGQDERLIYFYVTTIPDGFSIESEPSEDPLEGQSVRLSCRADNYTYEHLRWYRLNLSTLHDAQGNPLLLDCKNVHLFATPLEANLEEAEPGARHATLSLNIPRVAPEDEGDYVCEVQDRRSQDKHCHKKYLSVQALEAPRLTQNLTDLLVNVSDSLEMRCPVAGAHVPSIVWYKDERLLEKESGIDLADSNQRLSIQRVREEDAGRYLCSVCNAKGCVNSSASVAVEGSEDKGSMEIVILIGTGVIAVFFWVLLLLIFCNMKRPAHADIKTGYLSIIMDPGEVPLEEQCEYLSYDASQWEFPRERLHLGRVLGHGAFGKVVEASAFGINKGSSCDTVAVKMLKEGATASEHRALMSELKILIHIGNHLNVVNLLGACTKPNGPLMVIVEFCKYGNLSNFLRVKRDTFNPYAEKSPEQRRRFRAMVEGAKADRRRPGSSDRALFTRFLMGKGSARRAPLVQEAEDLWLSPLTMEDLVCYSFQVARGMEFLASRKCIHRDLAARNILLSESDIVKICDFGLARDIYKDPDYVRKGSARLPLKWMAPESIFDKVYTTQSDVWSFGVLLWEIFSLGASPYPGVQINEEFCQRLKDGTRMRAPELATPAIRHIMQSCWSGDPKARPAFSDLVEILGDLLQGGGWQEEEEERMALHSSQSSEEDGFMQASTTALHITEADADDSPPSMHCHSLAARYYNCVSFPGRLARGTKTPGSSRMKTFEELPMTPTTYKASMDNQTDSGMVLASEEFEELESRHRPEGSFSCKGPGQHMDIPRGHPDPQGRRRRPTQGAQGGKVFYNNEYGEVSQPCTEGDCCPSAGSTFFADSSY

T1 sequence (P35916 whole entry): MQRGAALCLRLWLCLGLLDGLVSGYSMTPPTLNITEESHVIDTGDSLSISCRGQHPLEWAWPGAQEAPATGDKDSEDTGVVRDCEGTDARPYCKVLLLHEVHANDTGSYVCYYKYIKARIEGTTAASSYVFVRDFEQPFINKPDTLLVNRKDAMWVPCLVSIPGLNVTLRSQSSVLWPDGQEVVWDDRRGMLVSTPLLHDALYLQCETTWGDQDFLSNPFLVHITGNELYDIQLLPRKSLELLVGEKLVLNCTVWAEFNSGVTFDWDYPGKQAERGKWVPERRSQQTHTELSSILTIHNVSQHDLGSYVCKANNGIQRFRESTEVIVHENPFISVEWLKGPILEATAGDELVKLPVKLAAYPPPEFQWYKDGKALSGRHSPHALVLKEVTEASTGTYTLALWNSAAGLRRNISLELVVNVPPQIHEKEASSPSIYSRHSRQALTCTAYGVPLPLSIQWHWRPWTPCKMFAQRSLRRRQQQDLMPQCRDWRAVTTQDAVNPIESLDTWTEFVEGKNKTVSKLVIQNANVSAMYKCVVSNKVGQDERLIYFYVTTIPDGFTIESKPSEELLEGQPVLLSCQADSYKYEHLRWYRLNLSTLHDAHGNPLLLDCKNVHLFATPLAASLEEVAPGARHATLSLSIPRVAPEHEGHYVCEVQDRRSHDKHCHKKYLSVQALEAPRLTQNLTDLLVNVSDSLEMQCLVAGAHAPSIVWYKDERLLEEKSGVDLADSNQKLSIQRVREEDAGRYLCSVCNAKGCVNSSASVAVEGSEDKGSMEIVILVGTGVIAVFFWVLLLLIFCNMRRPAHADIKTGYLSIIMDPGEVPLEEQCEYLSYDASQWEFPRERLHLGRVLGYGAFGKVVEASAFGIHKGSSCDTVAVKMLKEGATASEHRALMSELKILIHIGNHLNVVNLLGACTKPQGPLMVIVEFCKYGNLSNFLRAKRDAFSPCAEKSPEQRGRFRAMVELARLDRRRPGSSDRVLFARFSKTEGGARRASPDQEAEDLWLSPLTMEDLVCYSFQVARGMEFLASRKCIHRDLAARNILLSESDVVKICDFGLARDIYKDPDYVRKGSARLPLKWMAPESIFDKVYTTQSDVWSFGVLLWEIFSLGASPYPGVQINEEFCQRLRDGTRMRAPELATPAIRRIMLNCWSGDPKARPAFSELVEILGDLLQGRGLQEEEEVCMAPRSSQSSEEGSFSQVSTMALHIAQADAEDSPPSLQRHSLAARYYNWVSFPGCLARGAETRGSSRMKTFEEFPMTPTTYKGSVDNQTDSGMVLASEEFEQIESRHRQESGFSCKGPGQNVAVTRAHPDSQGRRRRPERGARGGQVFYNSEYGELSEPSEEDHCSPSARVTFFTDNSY

CN1CCN(c2ccc(-c3cc4c(N5CCN(C(=O)Nc6ccc(Cl)c(C(F)(F)F)c6)CC5)ncnc4s3)cc2)CC1
IC50 [1]: 110 nM | Activity (MDA-MB-436 [2]): Active | Activity (MDA-MB-436 [3]): Active | Activity (MDA-MB-231 [4]): Active | IC50 [5]: > 10000 nM | Activity (Mus musculus [6]): inactive | inhibition in vivo at 50 mg/kg [7]: 61.9% | Activity (Mus musculus [8]): Active | inhibition [9]: Active | clearance [10]: 4.8 mL/min/kg | Activity (MDA-MB-231 [11]): Active | Activity (MDA-MB-436 [12]): 36.7% | Activity (MDA-MB-231 [13]): Dose-Dependent Effect | AUC(0-inf) [14]: 3480 ng·h/mL | Activity (MDA-MB-231 [15]): 19.7% | Activity (MDA-MB-231 [16]): Active | AUC(0-inf) [17]: 12300 ng·h/mL | inhibition [18]: Active | half-life [19]: 13.1 h | IC50 [20]: 718 nM | Activity [21]: Non-Toxic | Activity (MDA-MB-231 [22]): Active | Activity (HDLEC): Active | inhibition [23]: Dose-Dependent Effect | IC50 (MDA-MB-436 [24]): 3500 nM | Activity (MDA-MB-436 [25]): Active | Activity [26]: Non-Toxic | Activity [27]: Non-Toxic | Activity (MDA-MB-436 [28]): 30.5% | inhibition [29]: Active | Activity [30]: Non-Toxic | Activity [31]: Non-Toxic | Activity [32]: Active
